Results taken from patent US20230416329A1, “A PEPTIDE WITH DISULFIDE BONDS AND INHIBITORY ACTIVITY AGAINST SERINE PROTEASES, DERIVED HYBRID PEPTIDES THEREOF, AND USES THEREOF” (INSTITUTE OF MATERIA MEDICA , CHINESE ACADEMY OF MEDICAL …, priority 2020, published 2023).
Bridge positions count the residues as written; N and C are the ends. Peptide text beside a SMILES is read from it.

Tests used:
[1] = biological target: chymotrypsin (Bos taurus, UniProt P00766); assay: in vitro
Procedure: FIG. 18. […] At different time point, 25 μL aliquots was taken out, and 10% (v/v) TFA was added to terminate the reaction.
Mix by centrifugation at 8000 rpm for 30 seconds.
Arrange a certain volume of 0.05 μg/μL chymotrypsin solution in another sterile EP. Incubate the EP tubes containing peptides and enzymes at 37° C. for 5 min, and add 3 μL of […] solution to each EP tube containing peptides and mix well. Start timing and extract 25 μL of reaction solution at 1.5, 3.0, 4.5, 6.0 and 9.0 min later, respectively. Add 3.75 μL of 10% TFA to terminate the reaction and mix well by centrifugation at 8000 rpm for 30 seconds.
Arrange a certain volume of 0.05 μg/μL chymotrypsin solution in another sterile EP. Incubate the EP tubes containing peptides and enzymes at 37° C. for 5 min, and then add 4.5 μL of chymotrypsin solution to each EP tube containing peptides and mix well. Start timing and extract 25 μL of reaction solution at 1.5, 3.0, 4.5, 6.0, 9.0, 15.0, 30.0, and 60.0 min later, respectively. Add 3.75 μL of 10% TFA to terminate the reaction and mix well by centrifugation at 8000 rpm for 30 seconds.
Referring to the experimental method in Example 5, in vitro stability of salmon Calcitonin analogs with oral administration activity to the enzymatic hydrolysis by trypsin, chymotrypsin and elastase were performed.
Referring to the experimental method in Example 5, in vitro stability of IL-17A inhibitory peptides towards the enzymatic hydrolysis by trypsin, chymotrypsin and elastase were performed.

[2] = biological target: α-chymotrypsin (Bos taurus, UniProt P00766); assay: Chymotrypsin inhibitory activity of peptides (AAPFpNA hydrolysis; IC50, Ki, residual activity); format: biochemical; conditions: for Ki: Ki=IC50/(1+S/Km), Km 0.38 mM; for IC50: chymotrypsin 30 nM, AAPFpNA 0.5 mM
Procedure: The inhibition constants of various synthetic active peptide inhibitors (molecular scaffolds) against seine proteases were measured. The substrates N-succinyl-Ala-Ala-Pro-Phe-p-nitroaniline (AAPFpNA), Nα—Benzoyl-L-arginine-4-nitroaniline hydrochloride (BApNA) and N-succinyl-[…] (AAApNA) are used in competitive binding reaction to determine the inhibitory activities against α-chymotrypsin, bovine trypsin, and porcine pancreatic elastase, respectively. Experiments for α-chymotrypsin and bovine trypsin inhibition were measured in 20 mM CaCl2, 50 mM Tris-HCl buffer (pH 7.8), and that for porcine elastase inhibition was measured in 50 mM Tris-HCl buffer (pH 8.0). The concentration of the peptide was measured using optical density (OD) at 280 nm. The Michaelis constant (Km) of the enzyme hydrolysis substrate is calculated from the initial rate of substrate hydrolysis at 405 nm. The absorbance value of the substrate was measured at 405 nm after complete hydrolysis. All data were processed using nonlinear regression.
• (1) Added a total 190 μL of reaction buffer (20 mM CaCl2, 50 mM Tris-HCl (pH 7.8)) into the 96 well plate, followed by preheating at 37° C. for 15 min. Then added 2 μL of different concentrations of substrates (p-Nitroanilide, pNA, 0.5% in DMSO), and mixed by centrifugation at 500 rpm for 1 min. Finally, the plate was incubated at 37° C. for 20 min, and the absorbance value at 405 nm was measured. In the 200 μL of reaction system, the final concentrations of pNA were 0, 0.025, 0.05, 0.075, 0.1, 0.125, 0.15, 0.25, and 0.3 mM, respectively. Make three repetitions for each concentration and plot the OD405 m value with pNA concentration to obtain the standard curve. • (2) Added a total 190 μL of reaction buffer (20 mM CaCl2, 50 mM Tris-HCl (pH 7.8)) and 8 μL of 0.75 μM chymotrypsin into the 96 well plate, followed by preheating at 37° C. for 5 min. Then added 2 μL of different concentrations of substrates (AAPFpNA, dissolved in DMSO), and mixed by centrifugation at 500 rpm for 1 min. Finally, the plate was incubated at 37° C. for 20 min, and the absorbance value at 405 nm was measured. In the 200 μL of reaction system, the final concentrations of AAPFpNA were 0, 0.125, 0.25, 0.285, 0.33, 0.4, and 0.5 mM, respectively. Make three repetitions for each concentration and plot the OD405 nm value with time to obtain the corresponding curve. Divide the slope of the curve by the slope of the standard curve and the enzyme concentration to obtain the initial velocity V0 (mM/(min*mM protein). Plot the initial velocity V0 with the concentration of substrate AAPFpNA using Prism software, and the Michaelis constant Km value of chymotrypsin hydrolyzing AAPFpNA was obtained.
• (1) Added a total 190 μL of reaction buffer (20 mM CaCl2, 50 mM Tris-HCl (pH 7.8)), different concentrations of anti-chymorypsin peptides (CHs) into the pre-cold 96 well plate, followed by preheating at 37° C. for 5 min and centrifugated at 500 rpm for 1 min and allowed to stand for 4 minutes. Then added 8 μL of 750 nM chymotrypsin and incubated at 37° C. for 10 min, and centrifugated at 500 rpm for 1 min and allowed to stand for 9 minutes. Finally, added 2 μL of 50 mM AAPFpNA, and mixed by centrifugation at 500 rpm for 1 min. The plate was incubated at 37° C. for 90 min, and the absorbance value at 405 nm was measured. Three repetitions were made, and only reaction buffer and substrate were added in the blank control as the minimum absorption value (Min OD405 nm); Only reaction buffer, enzyme and substrate were added in the negative control as the maximum absorption value (Max OD405). • (2) In the 200 μL of reaction system, the final concentrations of chymotrypsin and AAPFpNA were 30 nM and 0.5 mM, respectively. • (3) Data statistics
Residual activity of enzyme (%)=(1−(Max OD405 nm−Sample OD405 nm)/(Max OD405 nm−Min OD405 nm))*100 […]

[3] = isolated enzyme chymotrypsin, pH 7.8, Remaining peak area (%)/chymotrypsin

Row | Ki [2] | IC50 [2] | Residual activity of chymotrypsin ([2]; peptide 0.01 μM) | Residual activity of chymotrypsin ([2]; peptide 0.1 μM) | Residual activity of chymotrypsin ([2]; peptide 10 μM) | Residual activity of chymotrypsin ([2]; peptide 100 μM) | Residual activity of chymotrypsin ([2]; peptide 1000 μM) | SMILES | further results
1 |  |  |  |  |  |  |  | CC[C@H](C)[C@H](N)C(=O)N[C@@H](Cc1c[nH]cn1)C(=O)N[C@H](C(=O)N[C@H](C(=O)N[C@H](C(=O)N1CCC[C@H]1C(=O)N[C@@H](C)C(=O)N[C@@H](CC(=O)O)C(=O)N[C@@H](CC(C)C)C(=O)N[C@@H](Cc1c[nH]c2ccccc12)C(=O)N[C@@H](CC(=O)O)C(=O)N[C@@H](Cc1c[nH]c2ccccc12)C(=O)N[C@H](C(=O)N[C@@H](CC(N)=O)C(=O)NCC(=O)N[C@@H](Cc1ccccc1)C(=O)N[C@H]1CSSC[C@@H](C(=O)N[C@@H](Cc2ccc(O)cc2)C(=O)NCC(=O)O)NC(=O)[C@H](CCC(N)=O)NC(=O)[C@@H]2CCCN2C(=O)[C@@H]2CCCN2C(=O)[C@H]([C@@H](C)CC)NC(=O)[C@H](CO)NC(=O)[C@H](Cc2ccc(O)cc2)NC(=O)[C@H]([C@@H](C)O)NC1=O)[C@@H](C)CC)[C@@H](C)CC)[C@@H](C)O)C(C)C [17A-CH] (H-IHVTIPADLWDWINGFCTYSIPPQCYG-OH; disulfide 17-25) | stability towards chymotrypsin hydrolysis (in words) [1]: tolerated to the degradation of corresponding serine proteases; Remaining peak area (%)/chymotrypsin ([1]; 0 h): 100.0 ± 0.0%; remaining at 0.025 h, 60 μM [1, 3]: 41.6 ± 3%; remaining at 0.05 h, 60 μM [1, 3]: 41.7 ± 6%; remaining at 0.075 h, 60 μM [1, 3]: 38.8 ± 3.4%; remaining at 0.1 h, 60 μM [1, 3]: 45.1 ± 8.5%; remaining at 0.15 h, 60 μM [1, 3]: 44.3 ± 7.6%; remaining at 0.25 h, 60 μM [1, 3]: 35.2 ± 3.8%; remaining at 0.5 h, 60 μM [1, 3]: 30.5 ± 2.5%; remaining at 1 h, 60 μM [1, 3]: 35.7 ± 3%
2 | 460 nM | 1070 nM | 104.8 ± 7.2% | 93.6 ± 5.5% | 10.6 ± 0.2% | 1.2 ± 0.1% | 0.5 ± 0.1% | CC[C@H](C)[C@@H]1NC(=O)[C@H](CO)NC(=O)[C@H](Cc2ccccc2)NC(=O)[C@H]([C@@H](C)O)NC(=O)[C@@H](NC(=O)[C@@H](N)CC(C)C)CSSC[C@@H](C(=O)N[C@@H](Cc2ccc(O)cc2)C(=O)NCC(=O)O)NC(=O)[C@H](CCC(N)=O)NC(=O)[C@@H]2CCCN2C(=O)[C@@H]2CCCN2C1=O [CH1] (H-LCTFSIPPQCYG-OH; disulfide 2-10; N-terminus and C-terminus assumed) | Residual activity of chymotrypsin ([2]; peptide 0.001 μM): 103.5 ± 1.6%; Residual activity of chymotrypsin ([2]; peptide 1 μM): 55.0 ± 3.3%; Residual activity of chymotrypsin ([2]; peptide 3 μM): 26.4 ± 1.1%; Residual activity of chymotrypsin ([2]; peptide 300 μM): 0.3 ± 0.1%
3 |  | > 50000 nM |  |  |  |  |  | CC[C@H](C)[C@@H]1NC(=O)[C@H](CO)NC(=O)[C@H](Cc2ccccc2)NC(=O)[C@H](C)NC(=O)[C@H](CC(C)C)NC(=O)[C@@H](N)CSSC[C@@H](C(=O)N[C@@H](Cc2ccc(O)cc2)C(=O)NCC(=O)O)NC(=O)[C@H](CCC(N)=O)NC(=O)[C@@H]2CCCN2C(=O)[C@@H]2CCCN2C1=O [CH2] (H-CLAFSIPPQCYG-OH; disulfide 1-10; N-terminus and C-terminus assumed) | 
4 |  | > 50000 nM |  |  |  |  |  | CC[C@H](C)[C@@H]1NC(=O)[C@H](CO)NC(=O)[C@H](Cc2ccccc2)NC(=O)[C@H](C)NC(=O)[C@H](CC(C)C)NC(=O)CNC(=O)[C@@H](N)CSSC[C@@H](C(=O)N[C@@H](Cc2ccc(O)cc2)C(=O)NCC(=O)O)NC(=O)[C@H](CCC(N)=O)NC(=O)[C@@H]2CCCN2C(=O)[C@@H]2CCCN2C1=O [CH3] (H-CGLAFSIPPQCYG-OH; disulfide 1-11; N-terminus and C-terminus assumed) | 
5 | 550 nM | 1280 nM | 101.8 ± 0.8% | 100.7 ± 2.0% | 9.3 ± 1.1% | 0.7 ± 0.1% | 0.2 ± 0.0% | CC[C@H](C)[C@@H]1NC(=O)[C@H](CO)NC(=O)[C@H](Cc2ccc(O)cc2)NC(=O)[C@H]([C@@H](C)O)NC(=O)[C@@H](NC(=O)[C@@H](N)CO)CSSC[C@@H](C(=O)N[C@@H](Cc2ccc(O)cc2)C(=O)NCC(=O)O)NC(=O)[C@H](CCC(N)=O)NC(=O)[C@@H]2CCCN2C(=O)[C@@H]2CCCN2C1=O [CH4] (H-SCTYSIPPQCYG-OH; disulfide 2-10; N-terminus and C-terminus assumed) | Residual activity of chymotrypsin ([2]; peptide 0.001 μM): 103.2 ± 0.9%; Residual activity of chymotrypsin ([2]; peptide 0.3 μM): 86.7 ± 1.4%; Residual activity of chymotrypsin ([2]; peptide 0.6 μM): 70.4 ± 2.8%; Residual activity of chymotrypsin ([2]; peptide 2.5 μM): 34.6 ± 4.3%; Residual activity of chymotrypsin ([2]; peptide 7.5 μM): 13.8 ± 0.6%
6 |  | > 50000 nM |  |  |  |  |  | CC[C@H](C)[C@@H]1NC(=O)[C@H](CO)NC(=O)[C@H](Cc2ccc(O)cc2)NC(=O)[C@H]([C@@H](C)O)NC(=O)CNC(=O)[C@H](CO)NC(=O)CNC(=O)[C@@H](N)CSSC[C@@H](C(=O)N[C@@H](Cc2ccc(O)cc2)C(=O)NCC(=O)O)NC(=O)[C@H](CCC(N)=O)NC(=O)[C@@H]2CCCN2C(=O)[C@@H]2CCCN2C1=O [CH6] (H-CGSGTYSIPPQCYG-OH; disulfide 1-12; N-terminus and C-terminus assumed) | 
7 | 9650 nM | 22300 nM | 100.9 ± 1.3% | 98.8 ± 3.9% | 77.7 ± 2.0% | 14.1 ± 0.9% | 1.2 ± 0.1% | CC[C@H](C)[C@@H]1NC(=O)[C@H](CO)NC(=O)[C@H](Cc2ccccc2)NC(=O)[C@H]([C@@H](C)O)NC(=O)CNC(=O)[C@H](Cc2ccccc2)NC(=O)CNC(=O)[C@@H](N)CSSC[C@@H](C(=O)N[C@@H](Cc2ccc(O)cc2)C(=O)NCC(=O)O)NC(=O)[C@H](CCC(N)=O)NC(=O)[C@@H]2CCCN2C(=O)[C@@H]2CCCN2C1=O [CH7] (H-CGFGTFSIPPQCYG-OH; disulfide 1-12; N-terminus and C-terminus assumed) | inhibitory activity against chymotrypsin (in words) [2]: certain inhibitory activity against chymotrypsin; Residual activity of chymotrypsin ([2]; peptide 1 μM): 101.7 ± 6.3%; Residual activity of chymotrypsin ([2]; peptide 25 μM): 46.0 ± 1.0%; Residual activity of chymotrypsin ([2]; peptide 50 μM): 25.8 ± 0.9%; Residual activity of chymotrypsin ([2]; peptide 300 μM): 4.1 ± 0.1%
